Laboratory results: patent US20040191344A1, “Pharmaceutical composition for prophylaxis or treatment of osteoporosis, and method to prepare the same” (priority 2003, published 2004)

Test system: rats with ovariectomy-induced osteoporosis
Assay: Ovariectomy-induced osteoporosis model
Format: in vivo, rats (strain Sprague-Dawley)
Conditions: 3 months
Protocol: In order to determine the efficacy against osteoporosis in rats (strain Sprague-Dawley), two animal test models were constructed to illustrate the outcomes against normal osteoporosis or estrogen-deficiency-induced osteoporosis, respectively.
In the animal test models, retinoic acid-induced osteoporosis model was used as normal osteoporosis model and ovariectomy-induced model was used as the model for osteoporosis induced by estrogen deficiency.
The following experiment was conducted to test the effects of the pharmaceutical composition of the present invention on rats with ovariectomy-induced osteoporosis in terms of bone mineral contents, bone mineral density, biomechanical index and bone histomorphometry as well as illustrate the claimed efficacy of the pharmaceutical composition.
The ovariectomized animal model was constructed as follows. Anesthesia of the rats was conducted by intra-abdominal injection of 20% urethane according to the dosage of 1 g/kg. The rats were then placed face down, incised in both sides of the spinal cord under aseptic condition, and their ovaries were removed to attain an osteoporosis animal model. For Normal Group, a piece of fat was removed on both sides of back spinal cord. After five days, 72 animals were chosen from the living rats and randomly divided into 9 groups of 8 animals. Administrations were given according to the following conditions:
Normal Group (pseudo-operation): CMC-Na solution 10 ml/kg/d
Affected Group: CMC-Na solution 10 ml/kg/d
Positive Group (Nylestriol): batch no. 020701, provided by Shianghai Hualian Pharmaceuticals, 1 mg/kg, once a week
Subgroup I—Extract of Semen Cuscutae and Fructus Cindii/Composite Groups
(Medium Dosage): 200 mg/kg
Subgroup II—Sole Extract of Semen Cuscutae (Unitary Group)
Subgroup III—Low Dosage Plus Calcium-containing Substance 100 mg/kg, 200 mg/kg in Total
Subgroup IV—Unitary Group Plus Calcium-containing Substance in a Ratio of 70/30, 200 mg/kg in Total
The animals were continuously administered for 3 months. The effects of the pharmaceutical composition of the present invention on morphological alteration of the femur of rats were analyzed using a Dual Energy X-Ray Absorptiometry (DEXA) two days before end of the experiment under the anesthesia of ether. The femur and tibia bone were peeled and measured. Those pieces were soaked in 4% glutaraldehyde (0.1M, pH 7.3) for more than 24 hours. Later on, the vector side of the femur was hacksawed with dental diamond saw blades (grindstone). One piece from each animal was removed and cleaned in 10% sodium hypochlorite solvent for 6 hours, followed by ultra sound wash for 15 minutes.
It was then dehydrated by ethanol-gradient, soaked in ethyl ether, air dried, and then treated with ion sputtering coating (IB-3). The BMD was assessed by dual-energy X-ray absorptiometry (DEXA), and the SX-40 X-ray bone densitometer on 20,000 volt. The graphs were taken by CMIAS-98A image analyzer.
The bones were dried at […] in the oven and then weighed to get the dry weight. The dry bones were carbonated and then incinerated in 800° C. muffle furnace for 6 hours. The ashes were weighed and then dissolved in 6N HCl, in order to measure the Ca and P levels.

C#C[C@]1(O)[C@H](O)C[C@H]2[C@@H]3CCc4cc(OC5CCCC5)ccc4[C@H]3CC[C@@]21C [Nylestriol]
Ash Mass Index (1 mg/kg once a week): 0.649 ± 0.024 g/g | EI (1 mg/kg once a week): 28.55 ± 7.03 KN · mm^2 | K (spring strength) (1 mg/kg once a week): 248.91 ± 53.04 N/mm | Pb (maximum strength) (1 mg/kg once a week): 97 ± 9.4 N | δb (maximum torsion index) (1 mg/kg once a week): 0.54 ± 0.17 mm | σb (tensile strength) (1 mg/kg once a week): 147.79 ± 13.95 MPa | BMD level, Femur (DEXA, femoral head, 1 mg/kg/w): 0.353 ± 0.030 g/cm^2 | BMD level, Lumbar vertebra (DEXA, 1 mg/kg/w): 0.263 ± 0.015 g/cm^2 | Ca level (bone ash, 1 mg/kg once a week): 0.254 ± 0.029 g/g | P level (bone ash, 1 mg/kg once a week): 0.130 ± 0.014 g/g | Average Trabecular Width (femur, 1 mg/kg/w): 146.89 ± 22.27 μm | Percentage of Trabecular Area (femur, 1 mg/kg/w): 0.9148 ± 0.0371
